Experimental data taken from article PMC2947195 (Biochemical Journal, 2010).
Substitutions are numbered along the chain they refer to. Where two headings read alike, the source gives them in different places.

How the values were obtained:
Assay in all cases: Competitive inhibition of [3H]MTX uptake
Format in all cases: cell-based
S313T hRFC = biological target: T1, S313T hRFC (Homo sapiens, UniProt P41440, S313T); conditions: for decrease of Ki compared with wt hRFC: S313T hRFC versus wt hRFC
T1 sequence (P41440 1-591 S313T): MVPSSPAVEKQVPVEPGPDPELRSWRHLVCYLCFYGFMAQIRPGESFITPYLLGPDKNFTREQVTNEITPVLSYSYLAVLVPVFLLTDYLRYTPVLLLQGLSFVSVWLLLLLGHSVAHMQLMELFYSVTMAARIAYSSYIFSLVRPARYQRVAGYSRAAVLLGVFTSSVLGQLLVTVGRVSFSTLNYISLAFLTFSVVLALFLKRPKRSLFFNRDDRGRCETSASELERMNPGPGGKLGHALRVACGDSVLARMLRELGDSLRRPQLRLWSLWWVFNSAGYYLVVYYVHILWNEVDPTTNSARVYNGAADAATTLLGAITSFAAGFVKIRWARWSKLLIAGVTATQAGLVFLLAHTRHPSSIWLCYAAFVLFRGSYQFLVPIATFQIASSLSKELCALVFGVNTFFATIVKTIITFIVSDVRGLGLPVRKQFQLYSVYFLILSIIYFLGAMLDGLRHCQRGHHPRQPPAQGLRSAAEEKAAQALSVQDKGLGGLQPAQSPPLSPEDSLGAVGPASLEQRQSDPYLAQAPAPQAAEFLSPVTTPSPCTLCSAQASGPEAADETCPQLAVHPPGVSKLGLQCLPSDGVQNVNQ

S313A hRFC = biological target: T2, S313A hRFC (Homo sapiens, UniProt P41440, S313A)
T2 sequence (P41440 1-591 S313A): T1 sequence (P41440 1-591 S313T) with T313A

wt hRFC = biological target: T3, wt hRFC (Homo sapiens, UniProt P41440)
T3 sequence (P41440 1-591): T1 sequence (P41440 1-591 S313T) with T313S

Compound	Ki (S313T hRFC)	decrease of Ki compared with wt hRFC (S313T hRFC)	Ki (S313A hRFC)	decrease of Ki compared with wt hRFC (S313A hRFC; S313A hRFC versus wt hRFC)	Ki (wt hRFC)	increase of Ki compared with wt carrier (S313A hRFC; S313A hRFC versus wt hRFC)	Ki (S313T hRFC; S313T hRFC, inhibition of [3H]MTX (1 μM) uptake, Dixon plots, mean±S.E.M., n=3)	Ki (S313A hRFC; S313A hRFC, inhibition of [3H]MTX (1 μM) uptake, Dixon plots, mean±S.E.M., n=3)	Ki (wt hRFC; wt hRFC, inhibition of [3H]MTX (1 μM) uptake, Dixon plots, mean±S.E.M., n=3)
Nc1nc2c(c(=O)[nH]1)N(C=O)C(CNc1ccc(C(=O)N[C@@H](CCC(=O)O)C(=O)O)cc1)CN2 (stereo partly drawn) [Leucovorin, (6R,S)-5-formyl tetrahydrofolate]	7.74 ± 0.66 µM	2–3 fold	12.3 ± 0.88 µM	2–3 fold	18.7 ± 1.54 µM				
Cc1nc2ccc3ccc(CNc4ccc5c(c4)CN([C@@H](CCC(=O)O)C(=O)O)C5=O)cc3c2c(=O)[nH]1 [GW1843U89, (S)-2-[5-({[1,2-dihydro-3-methyl-1-oxo-benzo(f)quinazolin-9-yl]methyl}amino)1-oxo-2-isoindolinyl] glutaric acid]	0.75 ± 0.06 µM	2–3 fold	2.61 ± 0.5 µM		2.1 ± 0.01 µM				
Nc1nc2[nH]cc(CCc3ccc(C(=O)N[C@@H](CCC(=O)O)C(=O)O)cc3)c2c(=O)[nH]1 [Pemetrexed, N-{4-[2(2-amino-3,4-dihydro-4-oxo-7H-pyrrolo[2,3-d]pyrimidin-5-yl)ethyl]benzoyl}-L-glutamic acid]		2–3 fold		2–3 fold					
Nc1nc(=O)c2nc(CNc3ccc(C(=O)N[C@@H](CCC(=O)O)C(=O)O)cc3)cnc2[nH]1 [Folic acid, folic acid]	237 ± 58.4 µM		435 ± 82.7 µM		194 ± 5.45 µM	~ 2 fold			
Cc1nc2ccc(CN(C)c3ccc(C(=O)N[C@@H](CCC(=O)O)C(=O)O)s3)cc2c(=O)[nH]1 [Raltitrexed, N-{5-[N-(3,4-dihydro-2methyl-4-oxyquinazolin-6-ylmethyl)-N-methyl-amino]-2-thienoyl}-L-glutamic acid]		2–3 fold							
C#CCN(Cc1cc2c(=O)[nH]c(C)nc2cc1C)c1ccc(C(=O)N[C@@H](CCc2nnn[nH]2)C(=O)O)c(F)c1 [ZD9331, (2S)-2-{O-fluoro-p-[N-(2,7dimethyl-4-oxo-3,4-dihydro-quinazolin-6-ylmethyl)-N-(prop-2ynyl)amino]benzamido}-4-(tetrazol-5-yl)-butyric acid]	2.31 ± 0.18 µM		2.96 ± 0.52 µM		4.42 ± 0.93 µM				
Nc1nc(N)c2nc(CNc3ccc(C(=O)N[C@@H](CCC(=O)O)C(=O)O)cc3)cnc2n1 [Aminopterin, aminopterin]	2.75 ± 0.15 µM	2–3 fold	3.43 ± 0.58 µM	2–3 fold	7.03 ± 0.02 µM				
Nc1nc(N)c2nc(CNc3ccc(C(=O)N[C@@H](CCCNC(=O)c4ccccc4C(=O)O)C(=O)O)cc3)cnc2n1 [PT523, N^α-(4-amino-4-deoxypteroyl)-N^δ-hemiphthaloyl-L-ornithine]							2.86 ± 0.85 µM	3.13 ± 0.17 µM	4.56 ± 0.97 µM
CCC(Cc1cnc2nc(N)nc(N)c2n1)c1ccc(C(=O)N[C@@H](CCC(=O)O)C(=O)O)cc1 (stereo partly drawn) [Edatrexate, 10-ethyl-10-deazaaminopterin]	2.23 ± 0.38 µM		4.25 ± 0.53 µM		5.48 ± 1.1 µM				
